From patent US8129398B2 (priority 2008, dated 2012)
Where two headings read alike, the source gives them in different places.

Columns and labels:
HIV-integrase = biological target: T1, HIV-integrase (Human immunodeficiency virus type 1 group M subtype B, UniProt P12497); test: HIV-Integrase Inhibition Activity (SPA bead integration assay with P33 labeled target DNA); format: biochemical; conditions: for IC50: recombinant integrase, class symbols, read-out: in vitro activity; for Ki: representative compounds
T1 construct: Recombinant integrase (0.26 ng) was incubated with the beads
How it was run: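 Strand integration read as bead-proximity CPM after P33 target DNA (0.1 fmol) and inhibitor were added to washed integrase–substrate DNA complexes on SPA beads. Enzyme bound 90 min at 37° C; EDTA (10 mM final) terminated reaction; IC50 graded A/B/C.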

[1] = tested on: recombinant NL-Rluc virus; test: Inhibition of HIV replication (recombinant NL-Rluc virus, Renilla luciferase reporter); format: cell-based
[2] = read-out: Antiviral activity, NL-Rluc virus, serum condition not specified (10% FBS, 15 mg/ml human serum albumin/10% FBS or 40% human serum/5% FBS), class symbols

CN(C)C(=O)C(=O)NC12CCC(Cn3c1nc(C(=O)NCc1ccc(F)cc1)c(O)c3=O)C2 (single isomer, unassigned) [Example 412, Ethanediamide, N′-[2-[[[(4-fluorophenyl)methyl]amino]carbonyl]-6,7,8,9-tetrahydro-3-hydroxy-4-oxo-7,11-methanopyrimido[1,2-a]azepin-10(4H)-yl]-N,N-dimethyl-]
IC50 (HIV-integrase): < 10 nM | EC50 [1, 2]: < 10 nM

CN(C)C(=O)C(=O)NC12CCC(CCn3c1nc(C(=O)NCc1ccc(F)cc1)c(O)c3=O)C2 (single isomer, unassigned) [Example 414, Ethanediamide, N′-[2-[[[(4-fluorophenyl)methyl]amino]carbonyl]-7,8,9,10-tetrahydro-3-hydroxy-4-oxo-8,11-methano-4H-pyrimido[1,2-a]azocin-11(6H)-yl]-N,N-dimethyl-]
IC50 (HIV-integrase): < 10 nM | EC50 [1, 2]: < 10 nM

O=C(NCc1ccc(F)cc1)c1nc2n(c(=O)c1O)CC1CC2CN(C(=O)OCc2ccccc2)C1 (centres unmarked) [Example 6, 7,11-Methano-4H-pyrimido[1,2-a][1,5]diazocine-9(6H)-carboxylic acid, 2-[[[(4-fluorophenyl)methyl]amino]carbonyl]-7,8,10,11-tetrahydro-3-hydroxy-4-oxo-, phenylmethyl ester]
IC50 (HIV-integrase): 10 to 100 nM | Ki (HIV-integrase): 12 nM | EC50 ([1]; Human immunodeficiency virus 1): 141 nM

NC12CCC(CC1)Cn1c2nc(C(=O)NCc2ccc(F)cc2)c(O)c1=O [Example 19, 10-Amino-N-(4-fluorobenzyl)-3-hydroxy-4-oxo-4,6,7,8,9,10-hexahydro-7,10-ethanopyrimido[1,2-a]azepine-2-carboxamide]
IC50 (HIV-integrase): > 100 nM | Ki (HIV-integrase): 126 nM | EC50 ([1]; Human immunodeficiency virus 1): 302 nM

O=C(NC12CCC(CC1)Cn1c2nc(C(=O)NCc2ccc(F)cc2)c(O)c1=O)c1cccnc1 [Example 33, N-(4-Fluorobenzyl)-3-hydroxy-4-oxo-10-((3-pyridinylcarbonyl)amino)-4,6,7,8,9,10-hexahydro-7,10-ethanopyrimido[1,2-a]azepine-2-carboxamide]
IC50 (HIV-integrase): < 10 nM | Ki (HIV-integrase): 1 nM | EC50 ([1]; Human immunodeficiency virus 1): 2 nM

CC(=O)NC12CCC(CC1)Cn1c2nc(C(=O)NCc2ccc(F)cc2-n2ncnc2C)c(O)c1=O [Example 38, 10-(Acetylamino)-N-(4-fluoro-2-(5-methyl-1H-1,2,4-triazol-1-yl)benzyl)-3-hydroxy-4-oxo-4,6,7,8,9,10-hexahydro-7,10-ethanopyrimido[1,2-a]azepine-2-carboxamide]
IC50 (HIV-integrase): < 10 nM | Ki (HIV-integrase): 9 nM | EC50 ([1]; Human immunodeficiency virus 1): 37 nM

O=C(NCc1ccc(F)cc1)c1nc2n(c(=O)c1O)CC1CCC2(NS(=O)(=O)C2CC2)CC1 [Example 41, 10-((Cyclopropylsulfonyl)amino)-N-(4-fluorobenzyl)-3-hydroxy-4-oxo-4,6,7,8,9,10-hexahydro-7,10-ethanopyrimido[1,2-a]azepine-2-carboxamide]
IC50 (HIV-integrase): < 10 nM | Ki (HIV-integrase): 1 nM | EC50 ([1]; Human immunodeficiency virus 1): < 1 nM

Cc1cc(CNC(=O)c2nc3n(c(=O)c2O)CC2CCC3(NS(=O)(=O)C3CC3)CC2)ccc1F [Example 42, 10-((Cyclopropylsulfonyl)amino)-N-(4-fluoro-3-methylbenzyl)-3-hydroxy-4-oxo-4,6,7,8,9,10-hexahydro-7,10-ethanopyrimido[1,2-a]azepine-2-carboxamide]
IC50 (HIV-integrase): < 10 nM | Ki (HIV-integrase): 1 nM | EC50 ([1]; Human immunodeficiency virus 1): 1 nM

O=C(NC12CCC(CC1)Cn1c2nc(C(=O)NCc2ccc(F)cc2)c(O)c1=O)C(=O)c1c[nH]c2c(-n3cncn3)ncc(F)c12 [Example 48, N-(4-Fluorobenzyl)-10-(((4-fluoro-7-(1H-1,2,4-triazol-1-yl)-1H-pyrrolo[2,3-c]pyridin-3-yl)(oxo)acetyl)amino)-3-hydroxy-4-oxo-4,6,7,8,9,10-hexahydro-7,10-ethanopyrimido[1,2-a]azepine-2-carboxamide]
IC50 (HIV-integrase): < 10 nM | Ki (HIV-integrase): 1 nM | EC50 ([1]; Human immunodeficiency virus 1): 4 nM

O=C(NC12CCC(Cn3c1nc(C(=O)NCc1ccc(F)cc1)c(O)c3=O)OC2)OCc1ccccc1 (centres unmarked) [Example 219, Benzyl (2-((4-fluorobenzyl)carbamoyl)-3-hydroxy-4-oxo-6,7,8,9-tetrahydro-7,10-(epoxymethano)pyrimido[1,2-a]azepin-10(4H)-yl)carbamate]
IC50 (HIV-integrase): 10 to 100 nM | Ki (HIV-integrase): 12 nM | EC50 ([1]; Human immunodeficiency virus 1): 37 nM

CC(=O)N1CCC[C@H]1C(=O)NC12CCC(CC1)Cn1c2nc(C(=O)NCc2ccc(F)cc2)c(O)c1=O [Example 255, 7,10-Ethanopyrimido[1,2-a]azepine-2-carboxamide, 10-[[[(2S)-1-acetyl-2-pyrrolidinyl]carbonyl]amino]-N-[(4-fluorophenyl)methyl]-4,6,7,8,9,10-hexahydro-3-hydroxy-4-oxo-]
IC50 (HIV-integrase): < 10 nM | EC50 [1, 2]: < 10 nM

CS(=O)(=O)N1CCC[C@H]1C(=O)NC12CCC(CC1)Cn1c2nc(C(=O)NCc2ccc(F)cc2)c(O)c1=O [Example 256, 7,10-Ethanopyrimido[1,2-a]azepine-2-carboxamide, N-[(4-fluorophenyl)methyl]-4,6,7,8,9,10-hexahydro-3-hydroxy-10-[[[(2S)-1-(methylsulfonyl)-2-pyrrolidinyl]carbonyl]amino]-4-oxo-]
IC50 (HIV-integrase): < 10 nM | EC50 [1, 2]: < 10 nM

Cc1cc(CNC(=O)c2nc3n(c(=O)c2O)CC2CCC3(NC(=O)C3(C(F)(F)F)CC3)CC2)ccc1F [Example 303, 7,10-Ethanopyrimido[1,2-a]azepine-2-carboxamide, N-[(4-fluoro-3-methylphenyl)methyl]-4,6,7,8,9,10-hexahydro-3-hydroxy-4-oxo-10-[[[1-(trifluoromethyl)cyclopropyl]carbonyl]amino]-]
IC50 (HIV-integrase): > 100 nM | Ki (HIV-integrase): 180 nM | EC50 ([1]; Human immunodeficiency virus 1): 192 nM

Cc1cc(CNC(=O)c2nc3n(c(=O)c2O)CC2CCC3(NS(=O)(=O)CC3CC3)CC2)ccc1F [Example 306, 7,10-Ethanopyrimido[1,2-a]azepine-2-carboxamide, 10-[[(cyclopropylmethyl)sulfonyl]amino]-N-[(4-fluoro-3-methylphenyl)methyl]-4,6,7,8,9,10-hexahydro-3-hydroxy-4-oxo-]
IC50 (HIV-integrase): > 100 nM | Ki (HIV-integrase): 860 nM | EC50 ([1]; Human immunodeficiency virus 1): 385 nM

Cc1cc(CNC(=O)c2nc3n(c(=O)c2O)CC2CCC3(NC(=O)c3cccnn3)CC2)ccc1F [Example 314, 7,10-Ethanopyrimido[1,2-a]azepine-2-carboxamide, N-[(4-fluoro-3-methylphenyl)methyl]-4,6,7,8,9,10-hexahydro-3-hydroxy-4-oxo-10-[(3-pyridazinylcarbonyl)amino]-]
IC50 (HIV-integrase): < 10 nM | Ki (HIV-integrase): < 1 nM | EC50 ([1]; Human immunodeficiency virus 1): < 1 nM

CN(C)C(=O)C(=O)NC12CCC(CC1)Cn1c2nc(C(=O)N[C@H]2C[C@@H]2c2ccccc2)c(O)c1=O [Example 357]
IC50 (HIV-integrase): < 10 nM | Ki (HIV-integrase): 9 nM | EC50 ([1]; Human immunodeficiency virus 1): 6 nM

COc1ccc(CNC(=O)c2nc3n(c(=O)c2O)CC2CCC3(NC(=O)C(=O)N(C)C)CC2)c(OC)c1 [Example 382]
IC50 (HIV-integrase): 10 to 100 nM | Ki (HIV-integrase): 11 nM | EC50 ([1]; Human immunodeficiency virus 1): 16 nM

Cc1noc(C)c1S(=O)(=O)NC12CCC(CC1)Cn1c2nc(C(=O)NCc2ccc(F)cc2)c(O)c1=O [Example 392]
IC50 (HIV-integrase): > 100 nM | Ki (HIV-integrase): 467 nM | EC50 ([1]; Human immunodeficiency virus 1): 618 nM

O=C(NCc1ccc(F)cc1)c1nc2n(c(=O)c1O)CC1CCC2(NS(=O)(=O)c2ccccc2OC(F)(F)F)CC1 [Example 396]
IC50 (HIV-integrase): > 100 nM | Ki (HIV-integrase): 294 nM | EC50 ([1]; Human immunodeficiency virus 1): 455 nM

Cc1cc(CNC(=O)c2nc3n(c(=O)c2O)CC[C@H]2CC[C@]3(NC(=O)C(=O)N(C)C)C2)ccc1F [Example 416, Ethanediamide, N′-[(8R,11S)-2-[[[(4-fluoro-3-methylphenyl)methyl]amino]carbonyl]-7,8,9,10-tetrahydro-3-hydroxy-4-oxo-8,11-methano-4H-pyrimido[1,2-a]azocin-11(6H)-yl]-N,N-dimethyl-]
IC50 (HIV-integrase): < 10 nM

O=C(N[C@]12CC[C@H](CCn3c1nc(C(=O)NCc1ccc(F)cc1)c(O)c3=O)C2)C(=O)N1CC[C@@H](F)C1 [Example 417, 8,1,1-Methano-4H-pyrimido[1,2-a]azocine-2-carboxamide, N-[(4-fluorophenyl)methyl]-11-[[2-[(3R)-3-fluoro-1-pyrrolidinyl]-1,2-dioxoethyl]amino]-6,7,8,9,10,11-hexahydro-3-hydroxy-4-oxo-, (8R,11S)—]
IC50 (HIV-integrase): < 10 nM

O=C(N[C@@]12CC[C@@H](CCn3c1nc(C(=O)NCc1ccc(F)cc1)c(O)c3=O)C2)C(=O)N1CC[C@@H](F)C1 [Example 418, 8,1,1-Methano-4H-pyrimido[1,2-a]azocine-2-carboxamide, N-[(4-fluorophenyl)methyl]-11-[[2-[(3R)-3-fluoro-1-pyrrolidinyl]-1,2-dioxoethyl]amino]-6,7,8,9,10,11-hexahydro-3-hydroxy-4-oxo-, (8S,11R)—]
IC50 (HIV-integrase): < 10 nM
